Laboratory results: US11919965B2, “Methods of treating multiple myeloma with bispecific anti-BCMA x anti-CD3 antibodies” (Regeneron Pharmaceuticals, Inc., priority 2019, dated 2024)
Where two headings read alike, the source gives them in different places.

Tests used:
[1] = system: Jurkat/NFATLuc.3C7 reporter cells with HEK293 cells (BCMA negative); test: Jurkat/NFATLuc reporter bioassay (T-cell activation); type: cell-based, human
Description: (§1) Activity of the anti-BCMA×anti-CD3 bispecific antibodies were assessed in a Jurkat/NFATLuc reporter bioassay utilizing several cell lines with varying levels of BCMA surface expression. The Jurkat cells were engineered to express an NFAT-luciferase reporter (Jurkat/NFATLuc.3C7), and 50,000 Jurkat reporter cells were combined with 50,000 BCMA positive (Daudi, MM1-S, NCI-H929, OPM-2, RPMI-8226, MOLP-8, or Raji) or BCMA negative (HEK293) cells in Thermo Nunclon delta 96 well white microwell plates (Thermo Scientific, Cat #136102) in 50 ul of assay media (RPMI media with 10% FBS and 1% P/S/G). Three-fold serial dilutions of the BCMA×CD3 bispecific antibodies (mAb25441D or mAb25442D), or a bivalent anti-BCMA antibody (mAb21581) were immediately added in 50 uL of assay buffer. The plates were gently agitated and incubated in a 37° C., 5% CO2 incubator for 4-6 hours. NFAT-Luciferase activity was determined using Promega One-Glo (Cat #E6130) and a Perkin Elmer Envision plate reader. RLU were plotted in GraphPad Prism using a four-parameter logistic equation over a 12-point response curve to calculate EC50 values. The no antibody treatment condition for each dose-response curve is also included in the analysis as a continuation of the three-fold serial dilution and is represented as the lowest dose. The signal to noise (S:N) is determined by taking the ratio of the highest RLU on the curve to the lowest.

[2] = system: Jurkat/NFATLuc.3C7 reporter cells with MM1-S cells (BCMA positive); test: as above; type: cell-based, human
Description: as §1

[3] = system: Jurkat/NFATLuc.3C7 reporter cells with RPMI-8226 cells (BCMA positive); test: as above; type: cell-based, human
Description: as §1

[4] = system: Jurkat/NFATLuc.3C7 reporter cells with Raji cells (BCMA positive); test: as above; type: cell-based, human
Description: as §1

[5] = system: primary multiple myeloma blast cells; test: FACS cytotoxicity assay, autologous T cell-mediated killing of primary multiple myeloma blast cells; type: cell-based, human; settings: for EC50: read-out: MM Lysis EC50
Description: In order to monitor the specific killing of multiple myeloma cells by flow cytometry, bone marrow mononuclear cells (BMMC) from multiple myeloma patients were plated on human stromal cells (HS5) and rested overnight at 37 C. Separately, matching patient peripheral blood mononuclear cells (PBMC) were thawed and cultured in supplemented RPMI media at 1×10^6 cells/mL overnight at 37° C. in order to enrich for lymphocytes by depleting adherent cells. The next day, BMMC were co-incubated with adherent cell-depleted naïve PBMC on stromal cells (HS5) and a serial 10× dilution of BCMA×CD3 bispecific or 1-arm CD3 isotype control (starting concentration 66.7 nM) at 37° C. Cells were removed from cell culture plates at day 3, 4 or 7 and analyzed by FACS. For the assessment of specificity of killing, multiple myeloma cells were gated as single, live, CD90 negative (to exclude stromal cells), CD2 negative, CD56 positive. CD45 was low on multiple myeloma cells in most samples except MM455. Percent of live target cells was reported for the calculation of adjusted survival as follows: Adjusted survival=(R1/R2)*100, where R1=% live target cells in the presence of antibody, and R2=% live target cells in the absence of test antibody.
T cells were gated as CD2 positive, CD56 negative and either CD4 or CD8 positive. T cell activation was reported as the percent of CD25+CD4 or CD8 T cells out of total CD4 or CD8 T cells.

[6] = system: BCMA-expressing NCI-H929 multiple myeloma tumors; test: Xenogenic tumor model, NCI-H929 + human PBMC s.c. in NSG mice, dose response, treatment from implantation (Example 11); type: in vivo, mouse
Description: To determine the in vivo efficacy of anti-BCMA×anti-CD3 bispecific antibodies (Abs), a xenogenic tumor study was performed. Immunodeficient NOD.Cg-Prkdc^ScidII2rg^tm1Wjl/SzJ (NSG) mice were subcutaneously implanted with a mixture of 10×10^6 BCMA-expressing NCI-H929 human multiple myeloma tumor cells and 0.5×10^6 human peripheral blood mononuclear cells (PBMC) isolated from a normal, healthy donor. […] The mice were administered these Abs twice per week for a total of seven doses, and tumor growth was assessed over 60 days. While BCMA+NCI-H929 tumors grew similarly in the vehicle- and CD3-binding control-treated mice, both anti-BCMA×anti-CD3 Abs that were tested prevented the growth of tumors in a dose-dependent manner in vivo.
Implantation and measurement of xenogenic tumors: NSG mice were subcutaneously implanted with a mixture of 10×10^6 BCMA-expressing NCI-H929 multiple myeloma cells and 0.5×10^6 PBMC derived from a normal, healthy donor. […] The mice were administered Abs twice per week for a total of seven doses. Tumor growth was measured with calipers twice per week for the duration of the experiment.
Calculation of xenogenic tumor growth and inhibition: In order to determine tumor volume by external caliper, the greatest longitudinal diameter (length in mm) and the greatest transverse diameter (width in mm) were determined. Tumor volumes based on caliper measurements were calculated by the formula: Volume (mm^3)=(length× width^2)/2.

Question: What does the source list for “REGN5458: anti-BCMA×anti-CD3 bispecific antibody: mAb21581 BCMA heavy chain, mAb7221G CD3 heavy chain and common light chain; SEQ ID NOs 126, 127, 129”?
Answer: S:N (highest RLU to lowest) [1]: 1; S:N (highest RLU to lowest) [2]: 165; S:N (highest RLU to lowest) [3]: 55; S:N (highest RLU to lowest) [4]: 123; EC50 ([5]; Sample MM2, E:T 1.4, 7 days): 0.747 nM; % MM lysis at 66 nM ([5]; Sample MM2, newly diagnosed, E:T 1.4, 7 days): 88%; % MM lysis at 66 nM ([5]; Sample MM369, newly diagnosed, E:T 0.3, 3 days): 96%; EC50 ([5]; Sample MM453, E:T 2.4, 3 days): 0.0989 nM; % MM lysis at 66 nM ([5]; Sample MM453, newly diagnosed, E:T 2.4, 3 days): 82%; EC50 ([5]; Sample MM455, E:T 0.4, 3 days): 3.67 nM; % MM lysis at 66 nM ([5]; Sample MM455, progression, treated, E:T 0.4, 3 days): 63%; Average Tumor Size (mm3) ± SEM on Day 7 ([6]; 0.04 mg/kg): 30.8 ± 5.5 mm3; Average Tumor Size (mm3) ± SEM on Day 12 ([6]; 0.04 mg/kg): 71.5 ± 22.4 mm3; Average Tumor Size (mm3) ± SEM on Day 15 ([6]; 0.04 mg/kg): 133.4 ± 50.9 mm3; Average Tumor Size (mm3) ± SEM on Day 19 ([6]; 0.04 mg/kg): 413.7 ± 162.7 mm3; Average Tumor Size (mm3) ± SEM on Day 22 ([6]; 0.04 mg/kg): 669.4 ± 248.5 mm3; Average Tumor Size (mm3) ± SEM on Day 26 ([6]; 0.04 mg/kg): 1167.0 ± 431.7 mm3; Average Tumor Size (mm3) ± SEM on Day 29 ([6]; 0.04 mg/kg): 1781.8 ± 620.7 mm3; Average Tumor Size (mm3) ± SEM on Day 4 ([6]; 0.4 mg/kg): 31.9 ± 2.0 mm3; Average Tumor Size (mm3) ± SEM on Day 7 ([6]; 0.4 mg/kg): 11.3 ± 3.0 mm3; Average Tumor Size (mm3) ± SEM on Day 15 ([6]; 0.4 mg/kg): 0 ± 0 mm3; Average Tumor Size (mm3) ± SEM on Day 19 ([6]; 0.4 mg/kg): 0 ± 0 mm3; Average Tumor Size (mm3) ± SEM on Day 22 ([6]; 0.4 mg/kg): 0 ± 0 mm3; Average Tumor Size (mm3) ± SEM on Day 26 ([6]; 0.4 mg/kg): 0 ± 0 mm3; Average Tumor Size (mm3) ± SEM on Day 29 ([6]; 0.4 mg/kg): 0 ± 0 mm3; Average Tumor Size (mm3) ± SEM on Day 34 ([6]; 0.4 mg/kg): 0 ± 0 mm3; Average Tumor Size (mm3) ± SEM on Day 39 ([6]; 0.4 mg/kg): 0 ± 0 mm3; Average Tumor Size (mm3) ± SEM on Day 42 ([6]; 0.4 mg/kg): 0 ± 0 mm3; Average Tumor Size (mm3) ± SEM on Day 46 ([6]; 0.4 mg/kg): 0 ± 0 mm3; Average Tumor Size (mm3) ± SEM on Day 55 ([6]; 0.4 mg/kg): 0 ± 0 mm3; Average Tumor Size (mm3) ± SEM on Day 60 ([6]; 0.4 mg/kg): 0 ± 0 mm3; Average Tumor Size (mm3) ± SEM on Day 4 ([6]; 4 mg/kg): 18.0 ± 1.2 mm3; Average Tumor Size (mm3) ± SEM on Day 12 ([6]; 4 mg/kg): 0 ± 0 mm3; Average Tumor Size (mm3) ± SEM on Day 15 ([6]; 4 mg/kg): 0 ± 0 mm3; Average Tumor Size (mm3) ± SEM on Day 19 ([6]; 4 mg/kg): 0 ± 0 mm3; Average Tumor Size (mm3) ± SEM on Day 22 ([6]; 4 mg/kg): 0 ± 0 mm3; Average Tumor Size (mm3) ± SEM on Day 26 ([6]; 4 mg/kg): 0 ± 0 mm3; Average Tumor Size (mm3) ± SEM on Day 29 ([6]; 4 mg/kg): 0 ± 0 mm3; Average Tumor Size (mm3) ± SEM on Day 34 ([6]; 4 mg/kg): 0 ± 0 mm3; Average Tumor Size (mm3) ± SEM on Day 39 ([6]; 4 mg/kg): 0 ± 0 mm3; Average Tumor Size (mm3) ± SEM on Day 42 ([6]; 4 mg/kg): 0 ± 0 mm3; Average Tumor Size (mm3) ± SEM on Day 46 ([6]; 4 mg/kg): 0 ± 0 mm3; Average Tumor Size (mm3) ± SEM on Day 55 ([6]; 4 mg/kg): 0 ± 0 mm3; Average Tumor Size (mm3) ± SEM on Day 60 ([6]; 4 mg/kg): 0 ± 0 mm3
